Results published in paper PMC8378262 (Journal of controlled release : official journal of the …, 2021).

Tested on: Sprague Dawley rats
Assay: Mean systemic arterial pressure
Format: in vivo
Conditions: healthy rats, intravenous 3 mg/kg

| SMILES | change in mSAP (until 6 h after injection) | duration of the reduction in mSAP after injection [min] | maximum reduction of mSAP from baseline (within 30 min) [%] |
| --- | --- | --- | --- |
| O=[N+]([O-])c1ccc(COc2nccc3c(S(=O)(=O)N4CCCNCC4)cccc23)cc1 [FasPRO, 5-((1,4-diazepan-1-yl)sulfonyl)-1-((4-nitrobenzyl)oxy)isoquinoline] | did not produce any changes in mSAP |  |  |
| O=S(=O)(c1cccc2cnccc12)N1CCCNCC1 [Fasudil, reference compound] |  | 90 | 38.6±8.4 |
